Experimental data from patent US9877956B2, “Antiviral compounds and methods of use thereof” (Trana Discovery, Inc., priority 2014, dated 2018).
≈ marks a conversion by molar mass, not a printed value. Where “and” joins values, the source holds several entries; their conditions need not be identical. Identical values can stand only once.

Experiments:
Format in all cases: cell-based
HIV-1 92/HT/599 = HIV-1 92/HT/599 replication in human PBMCs, reverse transcriptase in culture supernatants (RLU); settings: for RLU (Relative Light Units), SAMPLE: individual samples, listed as Trana 156
Procedure: In these studies, PHA-P stimulated PBMCs from three donors were pooled together and re-suspended in fresh tissue culture medium at 1×10^6 cells/mL and plated in the interior wells of a 96 well round bottom microplate at 50µl/well. A 100µL volume of 9 concentrations of compound serially diluted were transferred to the round-bottom 96 well plate containing the cells in triplicate. Fifty microliters (µL) of HIV-1 at a pre-determined dilution was added. Each plate contained cell control wells and virus control wells in parallel with the experimental wells. After 7 days in culture, efficacy was evaluated by measuring the reverse transcriptase in the culture supernatants and the cells were stained with the tetrazolium dye XTT to evaluate cytotoxicity.

PBMC = assay: Toxicity in PBMC (Cell Titer 96); settings: for % CC: O.D. relative to cell control; for TOXICITY VALUES (Cell Titer 96 - O.D. @ 490/650 nm), SAMPLE: individual samples
Description: (§1) These compounds were further screened for activity in HIV-1-infected peripheral blood mononuclear cells (PBMC). The data (experiments were repeated, so duplicates are shown) is summarized in the tables below, and also in FIGS. 4A-B and 5A-B.

[1] = Toxicity in PBMC (Cell Titer 96); settings: human, peripheral blood mononuclear cells (PBMC); PBMC, Cell Titer 96
Description: as §1

With `CC1(C)OC(=O)C(=Cc2ccc(I)o2)C(=O)O1` [HIT #156] the “RLU (Relative Light Units), SAMPLE” value (HIV-1 92/HT/599; 0.32 μg/ml) was 9520.0 RLU and 22416.0 RLU and 22210.0 RLU, the “% Virus Control” value (HIV-1 92/HT/599; 1 μg/ml) was 110.39% and the “Antiviral Test Values Mean RLU” value (HIV-1 92/HT/599; 1 μg/ml) was 21291.7 RLU. For the same compound, the “RLU (Relative Light Units), SAMPLE” value (HIV-1 92/HT/599; 1 μg/ml) was 24338.0 RLU and 22848.0 RLU and 16689.0 RLU, the “% Virus Control” value (HIV-1 92/HT/599; 3.16 μg/ml) was 62.76% and the “Antiviral Test Values Mean RLU” value (HIV-1 92/HT/599; 3.16 μg/ml) was 12105.7 RLU. For the same compound, the “RLU (Relative Light Units), SAMPLE” value (HIV-1 92/HT/599; 3.16 μg/ml) was 9530.0 RLU and 14041.0 RLU and 12746.0 RLU, the “% Virus Control” value (HIV-1 92/HT/599; 9.99 μg/ml) was 4.15% and the “Antiviral Test Values Mean RLU” value (HIV-1 92/HT/599; 9.99 μg/ml) was 800.0 RLU. The “RLU (Relative Light Units), SAMPLE” value (HIV-1 92/HT/599; 9.99 μg/ml) was 138.0 RLU and 48.0 RLU and 2214.0 RLU, the “% Virus Control” value (HIV-1 92/HT/599; 31.6 μg/ml) was 0.21% and the “Antiviral Test Values Mean RLU” value (HIV-1 92/HT/599; 31.6 μg/ml) was 41.3 RLU. The “RLU (Relative Light Units), SAMPLE” value (HIV-1 92/HT/599; 31.6 μg/ml) was 46.0 RLU and 42.0 RLU and 36.0 RLU, the “% Virus Control” value (HIV-1 92/HT/599; 100 μg/ml) was 0.31% and the “Antiviral Test Values Mean RLU” value (HIV-1 92/HT/599; 100 μg/ml) was 60.7 RLU. The “RLU (Relative Light Units), SAMPLE” value (HIV-1 92/HT/599; 100 μg/ml) was 68.0 RLU and 62.0 RLU and 52.0 RLU, the “EC 25%” value (HIV-1 92/HT/599; HIV-1 92/HT/599, human PBMCs) was 2.35 µg/mL (≈ 6.75 µM) and the “EC 95%” value (HIV-1 92/HT/599; HIV-1 92/HT/599, human PBMCs) was 9.82 µg/mL (≈ 28.2 µM). The EC50 (HIV-1 92/HT/599; Human immunodeficiency virus 1, PBMC, read-out: EC50 (EC 50%), HIV-1 92/HT/599, human PBMCs) was 4.06 µg/mL (≈ 11.7 µM), the “Therapeutic Index (TI) 25%” value (HIV-1 92/HT/599; TC/EC at 25%) was 5.23 and the “Therapeutic Index (TI) 50%” value (HIV-1 92/HT/599; TC/EC at 50%) was 4.43. The “Therapeutic Index (TI) 95%” value (HIV-1 92/HT/599; TC/EC at 95%) was under 10.18, the “% CC” value (PBMC; 0.01 μM) was 110.7% and 108.3% and the “TOXICITY VALUES (Cell Titer 96 - O.D. @ 490/650 nm), SAMPLE” value (“TOXICITY VALUES … SAMPLE” below) (PBMC; 0.01 μM) was 2.344 O.D. and 1.718 O.D. and 1.852 O.D. and 0.687 O.D. and 1.030 O.D. and 0.777 O.D. The “% CC” value (PBMC; 0.03 μM) was 111.8% and 118.7%, the “TOXICITY VALUES … SAMPLE” value (PBMC; 0.03 μM) was 2.336 O.D. and 1.807 O.D. and 1.831 O.D. and 0.821 O.D. and 1.115 O.D. and 0.798 O.D and the “TOXICITY VALUES (Cell Titer 96 - O.D. @ 490/650 nm), MEAN” value (from here on “TOXICITY VALUES … MEAN”) (PBMC; 0.10 μM) was 1.952 O.D. and 0.991 O.D. For the same compound, the “% CC” value (PBMC; 0.10 μM) was 109.6% and 129.1%, the “TOXICITY VALUES … SAMPLE” value (PBMC; 0.10 μM) was 2.142 O.D. and 1.855 O.D. and 1.858 O.D. and 1.098 O.D. and 1.053 O.D. and 0.822 O.D and the “TOXICITY VALUES … MEAN” value (PBMC; 0.32 μM) was 1.937 O.D. and 1.031 O.D. The “% CC” value (PBMC; 0.32 μM) was 108.8% and 134.3%, the “TOXICITY VALUES … SAMPLE” value (PBMC; 0.32 μM) was 2.234 O.D. and 1.808 O.D. and 1.768 O.D. and 1.094 O.D. and 1.234 O.D. and 0.765 O.D and the “TOXICITY VALUES … MEAN” value (PBMC; 1.00 μM) was 1.882 O.D. and 1.010 O.D. The “% CC” value (PBMC; 1.00 μM) was 105.7% and 131.5%, the “TOXICITY VALUES … SAMPLE” value (PBMC; 1.00 μM) was 2.065 O.D. and 1.819 O.D. and 1.762 O.D. and 1.173 O.D. and 1.067 O.D. and 0.789 O.D and the “TOXICITY VALUES … MEAN” value (PBMC; 3.16 μM) was 1.914 O.D. and 1.060 O.D. The “% CC” value (PBMC; 3.16 μM) was 107.5% and 138.1%, the “TOXICITY VALUES … SAMPLE” value (PBMC; 3.16 μM) was 2.179 O.D. and 1.770 O.D. and 1.792 O.D. and 1.161 O.D. and 1.175 O.D. and 0.845 O.D and the “TOXICITY VALUES … MEAN” value (PBMC; 10.0 μM) was 1.924 O.D. and 0.976 O.D. For the same compound, the “% CC” value (PBMC; 10.0 μM) was 108.1% and 127.1%, the “TOXICITY VALUES … SAMPLE” value (PBMC; 10.0 μM) was 2.172 O.D. and 1.791 O.D. and 1.810 O.D. and 1.001 O.D. and 0.993 O.D. and 0.934 O.D and the “TOXICITY VALUES … MEAN” value (PBMC; 31.6 μM) was 1.891 O.D. and 0.979 O.D. For the same compound, the “% CC” value (PBMC; 31.6 μM) was 106.2% and 127.5%, the “TOXICITY VALUES … SAMPLE” value (PBMC; 31.6 μM) was 2.078 O.D. and 1.741 O.D. and 1.855 O.D. and 0.997 O.D. and 1.014 O.D. and 0.926 O.D and the “TOXICITY VALUES … MEAN” value (PBMC; 100 μM) was 1.613 O.D. and 0.847 O.D. The “% CC” value (PBMC; 100 μM) was 90.6% and 110.3%, the “TOXICITY VALUES … SAMPLE” value (PBMC; 100 μM) was 1.651 O.D. and 1.594 O.D. and 0.795 O.D. and 0.787 O.D. and 0.978 O.D and the “TC 90%” value (PBMC; PBMC, Cell Titer 96) was over 100 µM. The “TC 95%” value (PBMC; PBMC, Cell Titer 96) was over 100 µM and the CC50 [1] was over 100 µM.
